Experimental data published in US20100203531A1, “PREDICTING RESPONSIVENESS TO TEMOZOLOMIDE” (priority 2007, published 2010).

Test system: GBM34 xenograft
Test: Orthotopic intracranial xenograft survival, GBM34
Format: in vivo, human
Method: In vivo sensitivity of GBM lines to TMZ: To address whether MGMT methylation or polypeptide expression status are predictive of TMZ responsiveness, the effects of TMZ therapy on survival were evaluated in the panel of xenografts using an orthotopic therapy model. Mice with established intracranial xenografts were treated with 66 mg/kg TMZ or placebo daily for 5 days by oral gavage. This TMZ dosing regimen provides the equivalent dose-exposure to TMZ as the standard adjuvant TMZ dosing regimen for GBM patients of 200 mg/m^2×5 days. All mice were followed until reaching a moribund state, and the relative prolongation of survival following TMZ treatment was calculated for each line relative to placebo treatment (Table 1). […] Further analysis of the relationship between TMZ responsiveness and MGMT methylation status in 17 xenograft lines was conducted by comparing the distribution of median survival prolongation results for methylation-positive and methylation-negative groups of xenografts. From this analysis, MGMT methylation was modestly associated with increased TMZ sensitivity (FIG. 2, p=0.039, two-sample rank sum test). In a similar analysis of MGMT polypeptide expression levels, high levels of MGMT polypeptide expression were invariably associated with relative TMZ resistance, and the absence of MGMT polypeptide expression was associated with significant TMZ sensitivity (r=−0.73, p=0.005). […] While p53, PTEN and EGFR function have been linked to TMZ sensitivity in some models, no correlation between genetic alterations of these genes and TMZ responsiveness was observed.
Orthotopic model: Therapy evaluations were conducted using an orthotopic tumor model as described elsewhere (Sarkaria et al., Clin Cancer Res, 12:2264-2271 (2006), Giannini et al., Neuro-Oncology, 7:164-176, (2005)). Athymic nude mice (NCI, Frederick, Md.) with established intracranial tumors were randomized into groups of 8 to 10 mice each and treatment was initiated 2 weeks before mice were expected to become moribund. TMZ was purchased from the Mayo Clinic Pharmacy, suspended in Ora-plus (Paddock Laboratories, Minneapolis. MN), and administered by oral gavage at 66 mg/kg for 5 days. Mice were observed daily and euthanized when moribund.
Statistical analysis: Survival distributions were estimated using the Kaplan-Meier method. The log rank test was used to compare survival across treatment groups. All GBM experiments were pooled and Classification and Regression Tree analysis (CART) was used to identify which CpG sites in the MS-PCR assay (CpG sites 78-82, 86-89) were predictive of overall survival in TMZ treated mice. The two-sample rank sum test was used to compare relative differences in survival relative to MGMT MS-PCR status or CpG89 methylation status. […]

How did the “Survival Prolongation” value (GBM34, median survival relative to placebo, 66 mg/kg oral for 5 days (Table 3)) turn out when `Cn1nnc2c(C(N)=O)ncn2c1=O` [TMZ, Temozolomide] was run?
The value was 294%.

What about the Survival benefit (GBM34, prolongation of median survival relative to placebo, TMZ 66 mg/kg oral x5 days) of the same compound?
The Survival benefit was 294%.

What about the TMZ median survival (GBM34 intracranial xenograft, nude mice, TMZ 66 mg/kg oral daily x5 days) of the same compound?
The TMZ median survival was 351.

What about the Temozolomide median survival (GBM34 intracranial, athymic nude mice, 66 mg/kg oral gavage for 5 days (Table 3)) of the same compound?
Its Temozolomide median survival is 351.
